# Reference: paper PMC6093650, “Antidepressive and anxiolytic effects of ostruthin, a TREK-1 channel activator” (PLoS ONE, 2018)
# What was measured:
# HERG-3 = molecular target: T1, HERG-3 (Homo sapiens, UniProt Q9NS40); assay: whole-cell patch-clamp of HERG-3 currents in 293T cells; format: cell-based; details: 100 μM (data not shown)
# T1 construct: expressed in transfected cells; host or cells: 293T (transient, calcium-phosphate transfection)
# T1 sequence (Q9NS40 1-1196): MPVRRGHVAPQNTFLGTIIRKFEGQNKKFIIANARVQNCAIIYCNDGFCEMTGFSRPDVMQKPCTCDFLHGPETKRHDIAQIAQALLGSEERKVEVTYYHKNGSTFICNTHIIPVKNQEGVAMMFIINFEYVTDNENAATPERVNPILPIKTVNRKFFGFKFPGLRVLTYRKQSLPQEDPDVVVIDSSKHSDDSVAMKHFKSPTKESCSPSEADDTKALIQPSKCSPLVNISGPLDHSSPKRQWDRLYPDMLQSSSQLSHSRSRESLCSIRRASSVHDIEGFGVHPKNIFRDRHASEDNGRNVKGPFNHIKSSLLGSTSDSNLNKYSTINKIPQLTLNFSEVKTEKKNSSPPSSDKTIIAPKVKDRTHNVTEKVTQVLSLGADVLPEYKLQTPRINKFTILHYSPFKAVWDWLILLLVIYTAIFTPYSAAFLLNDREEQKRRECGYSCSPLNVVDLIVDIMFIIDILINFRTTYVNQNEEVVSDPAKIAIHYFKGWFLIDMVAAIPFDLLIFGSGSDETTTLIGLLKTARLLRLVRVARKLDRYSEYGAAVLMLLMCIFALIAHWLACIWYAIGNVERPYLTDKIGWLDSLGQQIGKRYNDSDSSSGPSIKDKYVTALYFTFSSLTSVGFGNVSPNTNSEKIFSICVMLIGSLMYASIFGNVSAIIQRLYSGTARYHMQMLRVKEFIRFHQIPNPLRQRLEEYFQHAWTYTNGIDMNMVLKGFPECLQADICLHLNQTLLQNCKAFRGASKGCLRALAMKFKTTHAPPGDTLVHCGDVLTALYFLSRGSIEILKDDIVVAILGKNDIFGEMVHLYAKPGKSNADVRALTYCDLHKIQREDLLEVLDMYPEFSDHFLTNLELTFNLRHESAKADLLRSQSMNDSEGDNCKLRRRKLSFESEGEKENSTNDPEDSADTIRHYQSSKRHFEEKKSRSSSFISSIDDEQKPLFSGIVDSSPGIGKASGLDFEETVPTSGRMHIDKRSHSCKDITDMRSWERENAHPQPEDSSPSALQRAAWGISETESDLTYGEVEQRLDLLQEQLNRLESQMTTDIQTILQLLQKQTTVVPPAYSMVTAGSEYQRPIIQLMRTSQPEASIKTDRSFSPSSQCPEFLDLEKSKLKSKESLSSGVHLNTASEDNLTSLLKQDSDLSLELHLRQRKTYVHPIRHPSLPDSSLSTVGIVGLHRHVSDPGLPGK
# From the text: (§1) For recordings of K^+ channel currents, we prepared stable cell lines for TREK-1, TWIK-related acid-sensitive K^+ channel (TASK-1), strongly inwardly rectifying K^+ channel (Kir2.1), and human ether-a-go-go-related gene (HERG-1) channels and transiently expressed other channels in 293T cells using a calcium-phosphate transfection method. For the establishment of the stable lines, we used lentiviral vectors, and the preparation methods for the lentiviral vectors were described in our previous report. TR-1 cells, which stably expressed TREK-1 channel and were grown on a small cover glass (3 × 18 mm), were placed in a recording chamber with an internal volume of 200 μl. Whole-cell currents were recorded in Tyrode solution using an Axopatch 200B amplifier (Axon Instruments, Foster City, CA) at 25°C. Tyrode solution contained (in mM): NaCl 140, KCl 5.4, NaH2PO4 0.33, CaCl2 2, MgCl2 1, HEPES 5, and glucose 5.5 (pH 7.4 adjusted with NaOH). […] Perfusion (100 μl/min) was continued to maintain the water level throughout recordings. pH and osmotic pressure of solutions were measured with a pH meter (Horiba, Kyoto, Japan) and a freezing point osmometer (Knauer, Berlin, Germany), respectively. […]
# KCNQ-1 = KCNQ-1 (Homo sapiens, UniProt P51787); assay: whole-cell patch-clamp of KCNQ-1 currents in 293T cells; format: cell-based; details: 100 μM (data not shown)
# From the text: as §1
# [1] = tested on: mice anxiety-like behavior; assay: open-field test; format: in vivo; details: n = 12
# From the text: Male ICR mice (n = 317 in total) aged 5 weeks and weighing 32 ± 2 g were purchased from Shimizu Laboratory Supplies (Kyoto, Japan). For the social defeat stress test, we used 28 C57BL/6J mice (5 weeks old, Shimizu Laboratory Supplies) and 30 ICR mice (7–8 weeks old, Charles River Labs Japan, Yokohama, Kanagawa, Japan). Mice were maintained for at least 1 week prior to experiments. Animals were kept in groups in plastic cages. They had free access to food and water, and were kept in a 12-h light/dark cycle (08:00–20:00). Experiments were carried out between 10:00 and 18:00 in a quiet and air-conditioned experimental room, in which mice were habituated for at least 30 min before each experiment. Animal experiments were performed in accordance with the guidelines of the Physiological Society of Japan and were approved by the Committees on Animal Experiments at Kansai Medical University and the Kurashiki University of Science and the Arts. Ostruthin was initially dissolved in DMSO at higher concentration (100 mM) and then diluted in phosphate-buffered saline (PBS). The diluted solution was mixed vigorously for more than 10 min before the experiments, and an equal volume of DMSO was added to PBS as a control. PBS and ostruthin were administered intraperitoneally 30 min before mice behavioral tests (0.01 ml/g body weight). Each animal was used only once, except for the wheel running test, which was carried out immediately after elevated plus maze.
# The open-field test was performed in accordance with a previous report with minor modifications. The open-field consisted of a square (90 × 90 cm), in which the floor was divided into 16 equal squares. After a mouse was placed in a corner of the open field facing the wall, the number of the entries into the central squares, and whole line crossings were counted for 5 min. After removal of animal, the apparatus was cleaned and wiped.
compound,measurement,setting,value
CC(C)=CCC/C(C)=C/Cc1cc2ccc(=O)oc2cc1O [ostruthin],effect on HERG-3 channels,HERG-3,no effect
same,effect on KCNQ-1 channels,KCNQ-1,no effect
same,number of entries to the central area,"[1]; 20 mg/kg i.p. 30 min before test, vs 5 mg/kg",significantly decreased
same,total line crossings,"[1]; 20 mg/kg i.p., vs 5 mg/kg",decrease
same,number of entries to the central area,"[1]; 2 and 5 mg/kg i.p. 30 min before test, vs 0 mg/kg, 5 min",significantly increased
same,total line crossings,"[1]; 2 and 5 mg/kg i.p. 30 min before test, vs 0 mg/kg",increased
